Results from patent US11203633B2, “Polynucleotides encoding antibodies or antigen binding fragments thereof that bind pseudomonas perv” (priority 2011, dated 2021).

Key:
Type in all cases: in vivo, Pseudomonas aeruginosa
[1] = test system: P. aeruginosa strain 6077 (O11-cytotoxic); test: Corneal infection (ocular keratitis) model in mice; conditions: C3H/HeN mice; IP, 16 hours prior to infection with 6077 1×10^6 CFU; graded at 48 h; FIG. 8H
Protocol: (§1) Antibodies or PBS were administered 24 hours before infection in each model. P. aeruginosa acute pneumonia, keratitis, and thermal injury infection models were performed as described (DiGiandomenico, A., et al., Proc Natl Acad Sci USA 104, 4624-4629 (2007)), with modifications. In the acute pneumonia model, BALB/c mice (The Jackson Laboratory) were infected with P. aeruginosa strains suspended in a 0.05 ml inoculum. In the thermal injury model, CF-1 mice (Charles River) received a 10% total body surface area burn with a metal brand heated to 92° C. for 10 seconds. Animals were infected subcutaneously with P. aeruginosa strain 6077 at the indicated dose. For organ burden experiments, acute pneumonia was induced in mice followed by harvesting of lungs, spleens, and kidneys 24 hours post-infection for determination of CFU.
Cam-003 and WapR-004 efficacy was next evaluated in a P. aeruginosa corneal infection model which emphasizes the pathogens ability to attach and colonize damaged tissue. […] FIG. 8 (H): The activity of anti-Psl and anti-PcrV monoclonal antibodies V2L2 was tested in a P. aeruginosa mouse ocular keratitis model. […]

[2] = test system: P. aeruginosa strains (PAO1, 33356, 6294, 6077, 6206, PA103A); test: Acute pneumonia model in mice, survival; conditions: for protection from challenge: 45 and 15 mg/kg; for survival compared to controls: 45, 15, 5 mg/kg 24 hours before infection
Protocol: as §1
The in vivo effect of administration of an anti-PcrV antibodies was studied in mice using an acute pneumonia model. Groups of mice were treated with either increasing concentrations of the V2L2 antibody, a positive control anti-PcrV antibody (mAb166), or a negative control (R347), as shown in FIG. 13 (A-B). Groups of mice were also treated with either increasing concentrations of the V2L2 antibody, the PcrV antibody PcrV-02, or a negative control (R347), as shown in FIG. 13 (C-D). Twenty-four hours after treatment, all mice were infected with 5×10^7 CFU (C) Pseudomonas aeruginosa 6294 (06) or (D) PA103A (O11).
Groups of mice were treated with either increasing concentrations of the 11A6, 3G5 or V2L7, the same concentrations of 29D2, 1F3, 1E6, V2L2, LE10, SH3, 4A8, 2H3, or 21F1, increasing concentrations of the 29D2, increasing concentrations of the V2L2, the PcrV antibody PcrV-02, or a negative control (R347), as shown in FIG. 13 (E-H). Mice were injected intraperitoneally (IP) with mAbs 24 hours prior to intranasal infection with Pseudomonas strain 6077 (1×10^6 CFU/animal).

[3] = test system: P. aeruginosa strains (PAO1, 33356, 6294, 6077, 6206); test: Acute pneumonia model in mice, organ burden (CFU in lung, spleen, kidneys)
Protocol: as §1
Organ burden of Pseudomonas-infected mice was also studied in response to administration of V2L2. FIG. 14 (A) Mice were treated with either 1 mg/kg R347 (control), or 1 mg/kg, 0.2 mg/kg, or 0.07 mg/kg of V2L2 and then were infected intranasally with 1.2×10^6 cfu of Pseudomonas 6206. FIG. 14 (B) Mice were also treated with either 15 mg/kg R347 (negative control); 15.0 mg/kg, 5.0 mg/kg, or 1.0 mg/kg mAb166 (positive control); or 5.0 mg/kg, 1.0 mg/kg, or 0.2 mg/kg V2L2 and then were infected intranasally with 5.5×10^6 cfu of Pseudomonas 6206.
The in vivo effect of combination administration of anti-Psl and anti-PcrV binding domains was further studied in mice using the antibodies V2L2 and WapR-004 (RAD). Groups of mice were treated with R347 (2.1 mg/kg—negative control), V2L2 (0.1 mg/kg), W4-RAD (0.5 mg/kg), or V2L2/W4 combination (either 0.1, 0.5, 1.0 or 2.0 mg/kg each). Twenty-four hours post-administration of antibody, all mice were infected with an inoculum containing 5.25×10^5 cfu 6206 (O11-ExoU+). Twenty-four hours post infection, lungs, spleens, and kidneys were harvested, homogenized, and plated for colony forming unit (CFU) identification per gram of tissue.

Substance: Cam-003: anti-Psl human IgG1 monoclonal antibody; VH SEQ ID NO:1, VL SEQ ID NO:2
- corneal pathology and CFU in total eye homogenates vs R347 [1]: significantly less pathology and reduced bacterial colony forming units (CFU) in total eye homogenates
- survival vs. R347, Log-rank test P ([2]; 6077 1×10^6 CFU, 5 mg/kg, FIG. 6D): 0.0001
- survival vs. R347, Log-rank test P ([2]; 6294 7×10^6 CFU, 5 mg/kg, FIG. 6C): 0.0212
- survival vs. R347, Log-rank test P ([2]; 6294 7×10^6 CFU, 15 mg/kg, FIG. 6C): 0.0019
- survival vs. R347, Log-rank test P ([2]; 6294 7×10^6 CFU, 45 mg/kg, FIG. 6C): 0.0007
- survival vs. R347, Log-rank test P ([2]; 33356 3×10^7 CFU, 5 mg/kg, FIG. 6B): 0.0373
- survival vs. R347, Log-rank test P ([2]; 33356 3×10^7 CFU, 15 mg/kg, FIG. 6B): 0.0012
- survival vs. R347, Log-rank test P ([2]; 33356 3×10^7 CFU, 45 mg/kg, FIG. 6B): 0.0012
- survival vs. R347, Log-rank test P ([2]; PAO1 1.6×10^7 CFU, 5 mg/kg, FIG. 6A): 0.0033
- survival vs. R347, Log-rank test P ([2]; PAO1 1.6×10^7 CFU, 15 mg/kg, FIG. 6A): 0.0003
- protection from challenge ([2]; cytotoxic strain 6077, FIG. 6D): complete protection
- survival ([2]; strain 6077, 5 mg/kg, FIG. 6D): 90%
- survival compared to controls ([2]; strain 6294, FIG. 6C): significant concentration-dependent survival
- survival ([2]; strain 33356, 5 mg/kg, FIG. 6B): 80%
- protection from challenge ([2]; strain 33356, FIG. 6B): complete protection
- survival compared to controls ([2]; strain PAO1, FIG. 6A): significant concentration-dependent survival
- viable CFU vs. R347, Mann-Whitney U-test P ([3]; 6077 1×10^6 CFU, lung, 45 mg/kg, FIG. 7D): 0.0005
- viable CFU vs. R347, Mann-Whitney U-test P ([3]; 6077, kidneys, 5 mg/kg, FIG. 7D): 0.0021
- viable CFU vs. R347, Mann-Whitney U-test P ([3]; 6077, kidneys, 15 mg/kg, FIG. 7D): 0.0355
- viable CFU vs. R347, Mann-Whitney U-test P ([3]; 6077, kidneys, 45 mg/kg, FIG. 7D): 0.0191
- viable CFU vs. R347, Mann-Whitney U-test P ([3]; 6077, lung, 5 mg/kg, FIG. 7D): 0.0007
- viable CFU vs. R347, Mann-Whitney U-test P ([3]; 6077, lung, 15 mg/kg, FIG. 7D): 0.0003
- viable CFU vs. R347, Mann-Whitney U-test P ([3]; 6077, spleen, 5 mg/kg, FIG. 7D): 0.0089
- viable CFU vs. R347, Mann-Whitney U-test P ([3]; 6077, spleen, 15 mg/kg, FIG. 7D): 0.0089
- viable CFU vs. R347, Mann-Whitney U-test P ([3]; 6077, spleen, 45 mg/kg, FIG. 7D): 0.0015
- viable CFU vs. R347, Mann-Whitney U-test P ([3]; 6294 6.25×10^6 CFU, lung, 5 mg/kg, FIG. 7C): 0.0068
- viable CFU vs. R347, Mann-Whitney U-test P ([3]; 6294 6.25×10^6 CFU, lung, 15 mg/kg, FIG. 7C): 0.0039
- viable CFU vs. R347, Mann-Whitney U-test P ([3]; 6294 6.25×10^6 CFU, lung, 45 mg/kg, FIG. 7C): 0.0003
- viable CFU vs. R347, Mann-Whitney U-test P ([3]; 6294 6.25×10^6 CFU, spleen, 5 mg/kg, FIG. 7C): 0.0012
- viable CFU vs. R347, Mann-Whitney U-test P ([3]; 6294 6.25×10^6 CFU, spleen, 15 mg/kg, FIG. 7C): 0.0230
- viable CFU vs. R347, Mann-Whitney U-test P ([3]; 6294 6.25×10^6 CFU, spleen, 45 mg/kg, FIG. 7C): 0.0057
- viable CFU vs. R347, Mann-Whitney U-test P ([3]; 33356 1×10^7 CFU, lung, 45 mg/kg, FIG. 7B): 0.0010
- viable CFU vs. R347, Mann-Whitney U-test P ([3]; 33356, lung, 5 mg/kg, FIG. 7B): 0.0045
- viable CFU vs. R347, Mann-Whitney U-test P ([3]; PAO1 1.1×10^7 CFU, lung, 45 mg/kg, FIG. 7A): 0.0015
- viable CFU vs. R347, Mann-Whitney U-test P ([3]; PAO1, kidneys, 15 mg/kg, FIG. 7A): 0.0056
- viable CFU vs. R347, Mann-Whitney U-test P ([3]; PAO1, kidneys, 45 mg/kg, FIG. 7A): 0.0092
- viable CFU vs. R347, Mann-Whitney U-test P ([3]; PAO1, lung, 5 mg/kg, FIG. 7A): 0.0015
- viable CFU vs. R347, Mann-Whitney U-test P ([3]; PAO1, lung, 15 mg/kg, FIG. 7A): 0.0021
- viable CFU vs. R347, Mann-Whitney U-test P ([3]; PAO1, spleen, 15 mg/kg, FIG. 7A): 0.0367
- viable CFU vs. R347, Mann-Whitney U-test P ([3]; PAO1, spleen, 45 mg/kg, FIG. 7A): 0.0120
- organ burden, dose dependence ([3]; cytotoxic strain 6077, FIG. 7D): the low dose was as effective as the higher dose
- dissemination to the spleen and kidneys ([3]; mice infected with PAO1, 6294 and 6077, FIG. 7A, C, D): marked effect in reducing dissemination to the spleen and kidneys
- lung burden ([3]; strains PAO1, 33356, 6294, 6077, FIG. 7A-D): effective at reducing P. aeruginosa lung burden against all four strains tested
